# Experimental data reported in patent US10472355B2, “Cancer treatment utilizing SP-141 to bind with MDM2 and act as an inhibitor of MDM2 expression” (Texas Tech University System, priority 2014, dated 2019).
# What was measured:
# [1] = target: T1, MDM2 protein (Homo sapiens, UniProt Q00987); test: FP-based competitive binding assay
# Description: (§1) The reduction is proportional to dose. Thus, SP-141 can occupy the p53-binding site on MDM2 as illustrated by FIG. 6. […] Thus, SP-141 serves as a specific MDM2 inhibitor with a high binding capacity for the MDM2 protein.
# (§2) FIG. 7A illustrates a chart illustrating % inhibition. This is illustrative of competitive binding to recombinant human MDM2 proteins using an FP-based binding assay. […] Similarly, FIG. 7B illustrates a chart or responses illustrative of competitive KD values of SP-141 to MDM2 as determined using the Biacore assay. The MDM2 protein was immobilized on a CM5 sensor chip. […] It is noteworthy that all the assays were performed in triplicate, and all the experiments were repeated at least three times.
# [2] = target: T1, MDM2 protein; test: Biacore assay (MDM2 immobilized on CM5 sensor chip); details: read-out: KD for binding to the MDM2 protein
# Description: as §1, §2
# [3] = target: GST-MDM2 (Homo sapiens, UniProt Q00987); test: Biotin-avidin pull-down assay with biotinylated SP-141; type: binding; details: biotin-SP-141 conjugate, avidin beads; purified GST negative control
# GST-MDM2, sequence (Q00987 whole entry): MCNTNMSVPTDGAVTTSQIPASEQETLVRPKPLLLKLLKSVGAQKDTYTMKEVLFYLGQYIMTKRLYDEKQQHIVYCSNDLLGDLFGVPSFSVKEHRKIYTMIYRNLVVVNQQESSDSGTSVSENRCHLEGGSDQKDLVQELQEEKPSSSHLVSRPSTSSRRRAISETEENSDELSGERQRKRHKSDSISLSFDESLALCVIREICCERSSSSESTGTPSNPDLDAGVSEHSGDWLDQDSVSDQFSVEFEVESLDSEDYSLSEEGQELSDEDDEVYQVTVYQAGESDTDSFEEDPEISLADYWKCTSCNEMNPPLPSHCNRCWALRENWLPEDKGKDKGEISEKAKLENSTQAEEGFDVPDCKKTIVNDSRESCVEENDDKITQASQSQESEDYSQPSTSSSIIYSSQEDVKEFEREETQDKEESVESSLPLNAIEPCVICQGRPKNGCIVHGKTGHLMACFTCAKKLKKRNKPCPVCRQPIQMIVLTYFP
# Description: As illustrated in FIGS. 2 and 3.
# A western blot analysis is illustrated in FIG. 5. […] Purified GST was used as a negative control. The bound protein was detected using anti-MDM2 and anti-GST antibodies.
# The bound protein was detected using anti-MDM2 antibody.
# [4] = test system: p53 KO MCF-7 cells; test: Apoptosis assay; type: cell-based, human; details: 1-mM SP-141, 48 hours
# Description: (§3) FIGS. 8-12 are presented toillustrate that SP-141 induces breast cancer cell death. In experiments conducted by the inventors, cells were exposed to various concentrations of SP-141 for 72 hours, using the MTT assay to evaluate the cell viability and IC50 value. FIG. 9 provides a photograph of such exposure for 24 hours using the colony formation assay. FIG. 10A illustrates a chart associated with 48 hours for the apoptosis assay and FIG. 10B illustrates a similar chart associated with 24 hours for the proliferation assay. FIG. 11 illustrates 24 hour for the cell cycle distribution assay. FIG. 12 illustrates a western blot analysis of the expression of MDM2 and proteins related to apoptosis and cell cycle arrest in human breast cancer cells. All these assays were performed in triplicate, and all the experiments were repeated at least three times (mean±s.e.m., n=9 for each data point, two-sided Student's t-test. *Po 0.01).
# [5] = test system: p53 mt MDA-MB-468 cells; test: Apoptosis assay; type: cell-based, human; details: 1-mM SP-141, 48 hours
# Description: as §3
# [6] = test system: p53 wt MCF-7 cells; test: Apoptosis assay; type: cell-based, human; details: 1-mM SP-141, 48 hours
# Description: as §3
# [7] = test system: MCF-7 cells (both p53 wt and p53 KD); test: Proliferation assay; type: cell-based, human; details: 0.5-mM concentration, 24 hours
# Description: (§4) MDA-MB-468 cells are more sensitive to SP-141 treatment at higher concentrations than MCF-7 and MCF-7 p53 KD cells.
# as §3
# [8] = test system: human breast cancer cell lines; test: Cell cycle distribution assay; type: cell-based; set-up: dose or concentration left out as unconfirmed; details: 24 hours
# Description: as §4, §3
# [9] = test system: breast cancer cell lines; test: Colony formation assay; type: cell-based, human; details: 24 hours exposure
# Description: as §3
# [10] = test system: MDM2 protein; test: Western blot of MDM2 expression in breast cancer cells; type: cell-based, human; details: multiple tested cell lines
# Description: SP-141 also effects MDM2 expression. […] In the MCF-7 (p53 wt) cells, the wild-type p53 protein level increased, in accordance with an expected inhibition of MDM2. […] SP-141 increases the expression of cleaved PARP and Bax and decreases the expression of Bcl-2 and Cyclin E in a p53-independent manner.
# as §3
# [11] = test system: MDM2 protein in MCF-7 and MDA-MB-468 cells; test: MDM2 protein degradation (cycloheximide chase, western blot); type: cell-based, human; details: 0.5 mM SP-141 24 hours, then cycloheximide
# Description: SP-141 can also induce MDM2 protein degradation. Specifically. SP-141 can induce MDM2 inhibition in vitro and in vivo. […] The p53 protein was stabilized in MCF-7 cells, but not in the p53 mt […] cells.
# MCF-7 and MDA-MB-468 cells were treated with SP-141 (0.5 mM), and then exposed to cycloheximide (CHX, 15 mg ml 1), an inhibitor of protein synthesis. The graphs in FIG. 20 show the quantification of the western blot data. Cells were treated with SP-141 (0.5 mM) for 24 hours, and then exposed to a proteasome inhibitor, MG 132 (25 mM), for an additional 6 hours. The protein levels of MDM2 were detected with western blot analysis, as illustrated in FIG. 21. Further, cells were transfected with MDM2 and ubiquitin plasmids, followed by treatment with SP-141 for 24 hours. The cells were then exposed to MG132 (25 mM) for an additional 6 hours, and the lysates were subjected to immunoprecipitation with an MDM2 antibody. Cells were transfected with a wild-type MDM2 plasmid or mutant MDM2 plasmid without E3 ligase activity (C464A). After treatment with SP-141 for 24 hours, MDM2 levels were detected with western blot analysis, as illustrated in FIG. 23. Representative images of MDM2 immunofluorescence in control and SP-141 (1 mM)-treated cells are illustrated in FIG. 24. B-actin and DAPI were used as internal references. All the experiments were repeated three times.
# [12] = test system: MCF-7 xenograft tumors; test: MCF-7 xenograft tumor model in nude mice; type: in vivo
# Description: (§5) As evidence, SP-141 was administered to nude mice bearing MCF-7 and MDA-MB-468 xenograft tumors. SP-141 was administered by intraperitoneal (i.p.) injection at doses of 40 mg/kgn 1 per day for 42 and 30 days, respectively.
# (§6) FIGS. 13-16 are presented to illustrate that. SP-141 suppresses breast xenograft tumor growth in vivo. FIGS. 13A and 13B illustrate tumor mass in nude mice bearing MCF-7 and MDA-MB-468, respectively. The xenograft tumors were treated with SP-141, which was administered by i.p. injection at 40 mg/kg 1 per day, 5 days per week for 42 and 30 days, respectively. FIGS. 14A and 14B illustrate the tumors after they were removed at the end of the experiments. The mice were also monitored for changes in body weight as a surrogate marker for toxicity in both the MCF-7 (as shown in FIG. 15A) and MDA-MB-468 (as shown if FIG. 15B) xenograft models. At the termination of the experiments, H&E staining of the paraffin sections of some organs from the mice bearing MCF-7 xenograft tumors was performed. (Mean±s.e.m., n>10 for each data point, two-sided Student's t-test, *P<0.01).
# [13] = test system: MDA-MB-468 xenograft tumors; test: MDA-MB-468 xenograft tumor model in nude mice; type: in vivo; details: i.p. 40 mg/kg per day
# Description: as §5, §6
# [14] = test system: MDA-MB-231 human breast cancer cells; test: Wound healing assay (cell migration); type: cell-based; details: 0.1 or 0.2 mM SP-141, MDA-MB-231 cells
# Description: SP-141 inhibits cell migration in vitro and in vivo. A crucial component of tumor cell invasion is cell migration. A wound healing assay can be used to investigate the effect of SP-141 on cancer cell motility, using MDA-MB-231 human breast cancer cells. The cells can be treated with the vehicle, or with 0.1 or 0.2 mM of SP-141, in order to evaluate the cell migration into the wound made in the cell monolayer.
# (§7) FIGS. 28-30 are provided to illustrate that SP-141 inhibits cell metastasis in vitro and in vivo. MDA-MB-231 cells were grown to confluence in a six-well plate, illustrated in FIG. 28. A scratch was made at experimental time zero, and then the cells were exposed to various concentrations of SP-141. The wells were imaged at different time points. All the experiments were repeated at least three times. The effects of SP-141 on the expression of EMT-related proteins in MDA-MB-231 cells is shown in the western blot analysis provided in FIG. 29. About 1×10^ 6 MDA-MB-231-Luc cells were intravenously injected into a tail vein of nude mice. SP-141 was administered by i.p. injection at doses of 20 mg kg, 1 per day, 5 days per week for 2 weeks. The luciferase signals in the mice were detected and photographed using an MS in vivo image system on days 1, 8, and 15, as shown in FIG. 30.
# [15] = test system: MDA-MB-231-Luc breast cancer cells; test: Experimental metastasis assay; type: in vivo, nude mice; details: i.p. 20 mg/kg per day for 2 weeks; days 8 and 15
# Description: To validate the anti-metastatic effects of SP-141 in vivo, an experimental metastasis assay can be performed. MDA-MB-231-Luc breast cancer cells can be intravenously injected into a tail vein of nulnu mice. The animals are randomly divided into a treatment group and a control group after cell injection. SP-141 can be administered by i.p injection at doses of 20 mg/kg, 1 per day for 2 weeks.
# as §7
# T1 sequence (Q00987 whole entry): as above
structure (smiles),measurement,setting,value
"COc1ccc2[nH]c3c(-c4cccc5ccccc45)nccc3c2c1 [SP-141, 6-methoxy-1-(naphthalen-1-yl)-9 H-pyrido[3,4-b]indole]",Ki,[1],28 ± 6 nM
same,Kd,[2],43 nM
same,Binding to MDM2 versus GST (pull-down),[3],"binds to MDM2, but not GST"
same,Increase of apoptotic index,[4],7 fold
same,Increase of apoptotic index,[5],11 fold
same,Increase of apoptotic index,[6],14 fold
same,Effect on cell proliferation,[7],significant decrease in proliferation
same,Effect on cell cycle,[8],induces cell cycle arrest in the G2 phase
same,Effect on cancer cell colony formation,[9],inhibit cancer cell colony formation in a concentration-dependent manner
same,MDM2 protein levels,[10],decrease in a concentration-dependent manner
same,Degradation rate of the MDM2 protein,[11],increased the degradation rate of the MDM2 protein
same,Host toxicity monitored by changes in body weight,"[12]; MCF-7 model, i.p. 40 mg/kg per day, 42 days",no significant host toxicity
same,Inhibition of xenograft tumor growth,"[12]; MCF-7 xenograft, i.p. 40 mg/kg per day, day 42",82%
same,Organ abnormalities at necropsy / histological examination,"[12]; mice bearing MCF-7 xenograft tumors, 40 mg/kg per day","no gross organ (liver, lung, kidney, spleen, heart or brain) abnormalities"
same,Host toxicity monitored by changes in body weight,"[13]; MDA-MB-468 model, 30 days",no significant host toxicity
same,Inhibition of xenograft tumor growth,"[13]; MDA-MB-468 xenograft, day 30",80%
same,Effect on cell migration into the wound,[14],significantly decreased the cell migration
same,Effect on metastasis (luciferase signals in lung tissues),[15],decreases the metastasis of breast cancer cells
